Measurements published in publication PMC3948918 (PLoS ONE, 2014).
pIC50: −log10 of the molar value. Read-outs that look alike come from different tables or passages of the source. Numbered stars: 1 amine (or outer) side, 2 acyl side, 3 side chain; on linkers, the order of the positions; unused ones are H or OH. Bridge positions count the residues as written; N and C are the ends. Square brackets hold non-standard residues; d marks the D form. Peptide text beside a SMILES is read from it. Adda = CO[C@@H](Cc1ccccc1)[C@@H](C)/C=C(C)/C=C/[C@H](N[*:1])[C@H](C)C(=O)[*:2]; dAsp(3S-Me) = C[C@H](C(=O)[*:3])[C@@H](N[*:1])C(=O)[*:2]; d(γGlu) = O=C(O)[C@@H](CCC(=O)[*:2])N[*:1]; NMeDha = C=C(NC)C(=O)O

Columns and labels:
[1] = system: OATP1B1-expressing RKO cells; details: read-out: IC50 RKO B1
HeLa Control cells [2] = details: read-out: IC50 HeLa Control
[3] = system: OATP1B3-expressing RKO cells
[4] = system: OATP1B3-expressing HeLa cells; details: for pIC50: read-out: IC50 HeLa B3
[5] = system: OATP1B1-expressing HeLa cells; details: read-out: IC50 HeLa B1
[6] = system: OATP1B1- and OATP1B3-expressing HeLa or RKO cell lines
OATP1B1 = assay: in vitro; details: human
[7] = system: OATP1B1-expressing HeLa cells; details: cited from earlier work
[8] = system: OATP1B3-expressing HeLa cells; details: cited from earlier work
HeLa Control cells [9] = details: cited from earlier work

| SMILES | pIC50 [1] | pIC50 (HeLa Control cells [2]) | Ratio IC50 B1/B3 RKO [3] | pIC50 ([3]; read-out: IC50 RKO B3) | Ratio IC50 B1/B3 HeLa [4] | pIC50 [4] | pIC50 [5] | pIC50 (RKO control cells; read-out: IC50 RKO control) | transporter selectivity (in words) [6] | other results |
| --- | --- | --- | --- | --- | --- | --- | --- | --- | --- | --- |
| C=C1C(=O)N[C@H](C)C(=O)N[C@@H](CC(C)C)C(=O)N[C@@H](C(=O)O)[C@H](C)C(=O)N[C@@H](CCCNC(=N)N)C(=O)N[C@@H](/C=C/C(C)=C/[C@H](C)[C@H](Cc2ccccc2)OC)[C@H](C)C(=O)N[C@@H](C(=O)O)CCC(=O)N1C [compound 1, MC-LR, reference compound] (R[Adda][d(γGlu)][NMeDha][dA]L[dAsp(3S-Me)]-OH; lactam N-7) | 8.09 | < 6.00 | 0.3 | 7.57 | 0.2 | 8.29 | 9.00 | < 6.00 | least OATP1B3 selective | – |
| C=C1C(=O)N[C@H](C)C(=O)N[C@@H](CC(C)C)C(=O)N[C@@H](C(=O)O)CC(=O)N[C@@H](CCCNC(=N)N)C(=O)N[C@@H](/C=C/C(C)=C/[C@H](C)[C@H](Cc2ccccc2)OC)[C@H](C)C(=O)N[C@@H](C(=O)O)CCC(=O)N1C [compound 2, [D-Asp^3]MC-LR] | 8.14 | – | 0.2 | 7.50 | – | – | – | < 6.00 | least OATP1B3 selective | – |
| C=C1C(=O)N[C@H](C)C(=O)N[C@@H](CC(C)CC)C(=O)N[C@@H](C(=O)O)CC(=O)N[C@@H](CCCNC(=N)N)C(=O)N[C@@H](/C=C/C(C)=C/[C@H](C)[C@H](Cc2ccccc2)OC)[C@H](C)C(=O)N[C@@H](C(=O)O)CCC(=O)N1C (stereo partly drawn) [compound 3, [D-Asp^3]MC-HilR] | – | – | 0.4 | – | – | – | – | – | least OATP1B3 selective | pIC50 (OATP1B1): 7.24; pIC50 ([3]; human): 6.85; pIC50 (RKO control cells; 3 h): < 6.00 |
| C/C=C1/NC(=O)CC[C@H](C(=O)O)NC(=O)[C@@H](C)[C@H](/C=C/C(C)=C/[C@H](C)[C@H](Cc2ccccc2)OC)NC(=O)[C@H](CCCNC(=N)N)NC(=O)C[C@H](C(=O)O)NC(=O)[C@H](CC(C)CC)NC(=O)[C@@H](C)NC1=O (stereo partly drawn) [compound 4, [D-Asp^3,(E)-Dhb^7]MC-HilR] | – | – | 15.0 | – | – | – | – | – | most OATP1B3 selective | pIC50 (OATP1B1): 7.24; pIC50 ([3]; human): 8.42; pIC50 (RKO control cells; 3 h): 6.00 |
| C=C1C(=O)N[C@H](C)C(=O)N[C@@H](CC(C)C)C(=O)N[C@@H](C(=O)O)[C@H](C)C(=O)N[C@@H](Cc2ccc(O)cc2)C(=O)N[C@@H](/C=C/C(C)=C/[C@H](C)[C@H](Cc2ccccc2)OC)[C@H](C)C(=O)N[C@@H](C(=O)O)CCC(=O)N1C [compound 5, MC-LY] (Y[Adda][d(γGlu)][NMeDha][dA]L[dAsp(3S-Me)]-OH; lactam N-7) | – | < 8.00 | – | – | 0.8 | 9.68 | 9.80 | – | least OATP1B3 selective | IC50 values (potency grouping) [6]: sub-nanomolar |
| C/C=C1/NC(=O)CC[C@H](C(=O)O)NC(=O)[C@@H](C)[C@H](/C=C/C(C)=C/[C@H](C)[C@H](Cc2ccccc2)OC)NC(=O)[C@H](Cc2ccc(O)cc2)NC(=O)C[C@H](C(=O)O)NC(=O)[C@H](CC(C)C)NC(=O)[C@@H](C)NC1=O [compound 6, [D-Asp^3,(E)-Dhb^7]MC-LY] | – | < 8.00 | – | – | 2.6 | 9.74 | 9.33 | – | weakly OATP1B3 selective | IC50 values (potency grouping) [6]: sub-nanomolar |
| C=C1C(=O)N[C@H](C)C(=O)N[C@@H](CC(C)C)C(=O)N[C@@H](C(=O)O)[C@H](C)C(=O)N[C@@H](Cc2c[nH]c3ccccc23)C(=O)N[C@@H](/C=C/C(C)=C/[C@H](C)[C@H](Cc2ccccc2)OC)[C@H](C)C(=O)N[C@@H](C(=O)O)CCC(=O)N1C [compound 8, LW, reference compound] (W[Adda][d(γGlu)][NMeDha][dA]L[dAsp(3S-Me)]-OH; lactam N-7) | 9.40 | < 6.00 | 1.4 | 9.54 | 1.4 | 9.80 | 9.66 | < 6.00 | weakly OATP1B3 selective | IC50 values (potency grouping) [6]: sub-nanomolar |
| C/C=C1/NC(=O)CC[C@H](C(=O)O)NC(=O)[C@@H](C)[C@H](/C=C/C(C)=C/[C@H](C)[C@H](Cc2ccccc2)OC)NC(=O)[C@H](Cc2c[nH]c3ccccc23)NC(=O)C[C@H](C(=O)O)NC(=O)[C@H](CC(C)C)NC(=O)[C@@H](C)NC1=O [compound 9, [D-Asp^3,(E)-Dhb^7]-MC-LW] | 7.96 | – | 1.4 | 8.11 | – | – | – | < 6.00 | weakly OATP1B3 selective | – |
| C=C1C(=O)N[C@H](C)C(=O)N[C@@H](CCCNC(=N)N)C(=O)N[C@@H](C(=O)O)[C@H](C)C(=O)N[C@@H](Cc2ccccc2)C(=O)N[C@@H](/C=C/C(C)=C/[C@H](C)[C@H](Cc2ccccc2)OC)[C@H](C)C(=O)N[C@@H](C(=O)O)CCC(=O)N1C [compound 12, MC-RF] (F[Adda][d(γGlu)][NMeDha][dA]R[dAsp(3S-Me)]-OH; lactam N-7) | 7.23 | – | 17.2 | 8.47 | – | – | – | < 6.00 | most OATP1B3 selective | – |
| C=C1C(=O)N[C@H](C)C(=O)N[C@@H](Cc2ccc(O)cc2)C(=O)N[C@@H](C(=O)O)CC(=O)N[C@@H](CCCNC(=N)N)C(=O)N[C@@H](/C=C/C(C)=C/[C@H](C)[C@H](Cc2ccccc2)OC)[C@H](C)C(=O)N[C@@H](C(=O)O)CCC(=O)N1C [compound 14, [D-Asp^3]MC-YR] | 6.83 | – | 3.1 | 7.32 | – | – | – | < 6.00 | – | – |
| C/C=C1/NC(=O)CC[C@H](C(=O)O)NC(=O)[C@@H](C)[C@H](/C=C/C(C)=C/[C@H](C)[C@H](Cc2ccccc2)OC)NC(=O)[C@H](CCCNC(=N)N)NC(=O)C[C@H](C(=O)O)NC(=O)[C@H](Cc2ccc(O)cc2)NC(=O)[C@@H](C)NC1=O [compound 15, [D-Asp^3,(E)-Dhb^7]MC-YR] | 6.97 | – | 4.0 | 7.57 | – | – | – | < 6.00 | most OATP1B3 selective | – |
| C=C1C(=O)N[C@H](C)C(=O)N[C@@H](CCCNC(=N)N)C(=O)N[C@@H](C(=O)O)[C@H](C)C(=O)N[C@@H](Cc2ccc(O)cc2)C(=O)N[C@@H](/C=C/C(C)=C/[C@H](C)[C@H](Cc2ccccc2)OC)[C@H](C)C(=O)N[C@@H](C(=O)O)CCC(=O)N1C [compound 16, MC-RY] (Y[Adda][d(γGlu)][NMeDha][dA]R[dAsp(3S-Me)]-OH; lactam N-7) | – | < 6.00 | – | – | 30.8 | 8.60 | 7.11 | – | most OATP1B3 selective | – |
| C=C1C(=O)N[C@H](C)C(=O)N[C@@H](Cc2ccc(O)cc2)C(=O)N[C@@H](C(=O)O)[C@H](C)C(=O)N[C@@H](Cc2ccc(O)cc2)C(=O)N[C@@H](/C=C/C(C)=C/[C@H](C)[C@H](Cc2ccccc2)OC)[C@H](C)C(=O)N[C@@H](C(=O)O)CCC(=O)N1C [compound 17, MC-YY] (Y[Adda][d(γGlu)][NMeDha][dA]Y[dAsp(3S-Me)]-OH; lactam N-7) | – | 6.59 | – | – | 1.9 | 9.10 | 8.82 | – | – | IC50 values (potency grouping) [6]: sub-nanomolar |
| C/C=C1/NC(=O)CC[C@H](C(=O)O)NC(=O)[C@@H](C)[C@H](/C=C/C(C)=C/[C@H](C)[C@H](Cc2ccccc2)OC)NC(=O)[C@H](Cc2c[nH]c3ccccc23)NC(=O)C[C@H](C(=O)O)NC(=O)[C@H](CCc2ccc(O)cc2)NC(=O)[C@@H](C)NC1=O [compound 20, [D-Asp^3,(E)-Dhb^7]MC-HtyW] | – | – | 1.9 | – | – | – | – | – | – | pIC50 (OATP1B1): 8.31; pIC50 ([3]; human): 8.59; pIC50 (RKO control cells; 3 h): < 7.00 |
| CO[C@@H](Cc1ccccc1)[C@@H](C)/C=C(C)/C=C/[C@@H]1NC(=O)[C@H](CCCCNC(=N)N)NC(=O)C[C@H](C(=O)O)NC(=O)[C@H](Cc2ccc(O)cc2)NC(=O)[C@@H](C)NC(=O)[C@H](CO)N(C)C(=O)CC[C@H](C(=O)O)NC(=O)[C@H]1C [compound 21, [D-Asp^3,MSer^7]MC-YHar] | – | – | 1.6 | – | – | – | – | – | – | pIC50 (OATP1B1): 6.20; pIC50 ([3]; human): 6.41; pIC50 (RKO control cells; 3 h): < 6.00; pIC50 ([6]; human): < 7.00 |
| C=C1C(=O)N[C@H](C)C(=O)N[C@@H](Cc2ccc(O)cc2)C(=O)N[C@@H](C(=O)O)[C@H](C)C(=O)N[C@@H](CCCNC(=N)N)C(=O)N[C@@H](/C=C/C(C)=C/[C@H](C)[C@H](Cc2ccccc2)OC)[C@H](C)C(=O)N[C@@H](C(=O)OC)CCC(=O)N1C [compound 22, [D-Glu(OMe)^6]MC-YR] | 6.23 | – | 2.6 | 6.64 | – | – | – | < 6.00 | – | pIC50 ([6]; read-out: IC50 values (potency grouping)): < 7.00 |
| CC=C1C(=O)N[C@@H](C(=O)O)[C@H](C)C(=O)N[C@@H](CCCNC(=N)N)C(=O)N[C@@H](/C=C/C(C)=C/[C@H](C)[C@H](Cc2ccccc2)OC)[C@H](C)C(=O)N[C@@H](C(=O)O)CCC(=O)N1C [compound 23, Nodularin] | 8.00 | < 7.00 | < 0.1 | < 7.00 | < 0.1 | < 7.00 | 8.08 | < 7.00 | – | – |
| C=C1[C@@H](O)[C@@H]2O[C@]3(CC[C@H](/C=C/[C@@H](C)[C@@H]4CC(C)=C[C@@]5(O[C@H](C[C@@](C)(O)C(=O)O)CC[C@H]5O)O4)O3)CC[C@H]2O[C@@H]1[C@@H](O)C[C@H](C)[C@H]1O[C@@]2(CCCCO2)CC[C@H]1C [compound 24, okadaic acid] | – | – | – | – | – | – | – | – | – | pIC50 [7]: 8.66; pIC50 [8]: 8.52; Ratio IC50 B1/B3 HeLa [8]: 0.7; pIC50 (HeLa Control cells [9]): 8.11 |
